# What was measured:
# [1] = test system: Adnp^+/+ and Adnp^+/− male mice; assay: Open field test; assay type: in vivo; settings: 15 min
# Protocol: FIG. 5. […] Furthermore, NAP ameliorates motor dysfunction in Adnp^+/− mice. Each male mouse (n=9-12 per group) was placed in the middle of the field and allowed to freely explore the arena for 15 min. The duration in center zone (A), and the total path traveled (B) were measured by the Ethovision XT video tracking system (Noldus Inc. Leesburg, Va.).
# Experiments performed as we described in Malishkevich et al., 2015 (37) and Amram et al., Mol Psychiatry. 2016 October; 21(10):1467-76 (7). 3-6 month-old male mice were used, drug application (0.5 μg/5 μl/mouse) was once daily, for one month and then behavioral assays were initiated together with drug application. In experiments with the vehicle termed DD (NAP-benzalkonium), drug application was at 2 months of age and continued as above. Open field experiments (16, 17) and elevated plus maze evaluations (18) were carried out as before.
# [2] = test system: amnestic mild cognitive impairment patients; settings: clinical study; cited from earlier work
smiles,measurement,setting,value
CC[C@H](C)[C@H](NC(=O)[C@H](CO)NC(=O)[C@@H](NC(=O)[C@@H]1CCCN1C(=O)[C@H](C)NC(=O)[C@@H](N)CC(N)=O)C(C)C)C(=O)N1CCC[C@H]1C(=O)N[C@@H](CCC(N)=O)C(=O)O [NAP],duration in center zone,"[1]; male mice of both genotypes, NAP-treated vs vehicle-treated p<0.05",staying longer time at the center of the field
same,total path traveled (slight hyperactivity of Adnp^+/− mice),[1]; male mice,not affecting the slight hyperactivity
same,cognitive scores,[2],increase in cognitive scores

# From patent publication US10912819B2, “Neuroprotective peptides derived from activity-dependent neuroprotective protein for treatment of neurological diseases” (priority 2016, dated 2021)
